Data as given in patent EP4559463A1, “EDARAVONE OR ITS SALTS FOR USE IN THE TREATMENT OF OXIDATIVE STRESS-MEDIATED NEURODEGENERATIVE DISORDERS” (Ferrer Internacional, S.A., priority 2023, dated 2025).
“Also recorded” adds a separate entry of the source. Read-outs that look alike come from different tables or passages of the source.

What was measured:
[1] = tested on: patients with Amyotrophic Lateral Sclerosis (ALS); test: Clinical assessment of neuropathy in the clinical study of edaravone granules for oral solution; type: in vivo, human
Description: A clinical study was started to investigate the efficacy and safety of 100 mg of edaravone granules for oral solution (composition shown in table 1 above) in 300 patients with Amyotrophic Lateral Sclerosis (ALS) following treatment for 48 or 72 weeks. The first 100 subjects enrolled will have either 72 weeks of follow-up or have reached an intercurrent event, and the rest (about two thirds of enrolled patients) will be followed up to 48 weeks (or have reached an intercurrent event).
During the treatment, the participants are randomly assigned to receive a daily dose of 100 mg of either edaravone (composition shown in table 1 above) or placebo at a ratio of 2:1 (i.e., two thirds of the patients receive the edaravone formulation and one third receives placebo) for 72 weeks. The study medication, both the placebo and edaravone, is available in single-dose sachets, which must be dissolved in water and taken orally once daily in the morning after a lapse of at least 2 hours from the last meal consumption.
Several authors and regulatory agencies (see for instance EMA/CHMP/290284/2019, page 134) consider that monitoring of the levels of pyridoxal 5'-phosphate (PLP), the active form of vitamin B6, and testing of motor or sensory nerve conduction, such as Nerve Conduction Studies (NCS) described below, should be carried out in order to allow for early detection of neurotoxicity. In addition to this, clinical assessment of neuropathy of patients was carried out by neurologist.
Moreover, the percentage of neuropathy found in patients suffering from other chronic diseases such as diabetes, HIV infection or alcoholism is higher than 20 %. When the blinding of the study is broken, the specific percentages of neuropathy could be linked to the edaravone and placebo arms.

[2] = tested on: patients with Amyotrophic Lateral Sclerosis (ALS); test: Nerve Conduction Study (NCS) within the clinical study; type: in vivo, human; details: for Sural-Radial Amp Ratio (SRAR), Shift from Baseline: Low to Low / Sural-Radial Amp Ratio (SRAR), Shift from Baseline: Low to Normal / Sural-Radial Amp Ratio (SRAR), Shift from Baseline: Normal to Low / Sural-Radial Amp Ratio (SRAR), Shift from Baseline: Normal to Normal / Sural nerve - SNAP Amp, Shift from Baseline: Low to Low / Sural nerve - SNAP Amp, Shift from Baseline: Low to Normal / Sural nerve - SNAP Amp, Shift from Baseline: Normal to Low / Sural nerve - SNAP Amp, Shift from Baseline: Normal to Normal: blinded pool edaravone/placebo 2:1
Description: A centralized evaluation was performed by neurophysiologists to avoid any bias between sites and to guarantee the safety of patients. The NCS was initially performed for the first 60 enrolled patients at screening, and on weeks 4, 12, and 24. […] NCS main criteria for neuropathy are decreased sural nerve SNAP (sensory nerve action potential) amplitudes or decreased sural/radial nerve amplitude ratio (SRAR), although all data is assessed globally. […] The fact that most of the patients show no change in these values, i.e., that they start with 'normal' and remain 'normal' is a sign of lack of neurotoxicity of the treatment. The appearance of neuropathy may also occur at the normal population for other causes such as diabetes or alcoholism, totally unrelated to any treatment. The NCS protocol evaluates the sensory nerve action potential (SNAP) amplitudes using standard ring-electrodes and predefined sites for both stimulus (antidromic) and recording sites, including standardized distances that also apply for the inter-electrode distances. […] These measures eliminate any unwanted variation due to instrumentational differences. NCS data is evaluated independently at a single specialized unit taking into account reference values provided by participating sites and using age-adjusted reference values. Recordings can be performed on a standard type of electromyograph (EMG) equipment (e.g., Natus Nicolet EDX, Nicolet Viking, Dantec Keypoint, TECA Synergy, Cadwell). The following steps were followed to perform the NCS assessment: • Recording and documentation of temperature at start of the assessment at hand and foot respectively. Limb temperature should be ≥ 31°C, otherwise warming may be considered or alternatively accepted correction factor for decreased temperature could be done. • Unilateral recording of sensory responses of the following nerves (hand, followed by lower limb) was carried out: • ∘ Median nerve (hand, dig II). The distance from the stimulus and recording electrode should be recorded. • ∘ Ulnar nerve (hand, dig V). The distance from the stimulus and recording electrode should be recorded. • ∘ Radial nerve (back of the hand). A standardized distance stimulus-recording electrode of 12 cm should be used. • ∘ Sural nerve (leg, lateral malleolus). A standardized distance stimulus-recording electrode of 12 cm should be used. • Recording of sensory responses were carried out using standardized sides (left or right) for stimulation (assessments were performed on one side only, the same side for each subject was used throughout the study). Electrodes were placed at an interelectrode distance of 2 cm. […] For each nerve, sensory nerve action potential (SNAP) amplitudes were evaluated. Antidromic stimulus were provided to the subjects. Required quality of the NCS included: optimization of the recordings, ensuring flat base line without a slope, omitting stimulus artifacts and background noise, so that markers could be placed appropriately, and true SNAP amplitude values could be obtained accurately. The NCS Ranges of normality considered for this clinical study for SNAP Amp (sensory nerve action potential amplitude) and SCV (sensory conduction velocity) are shown below: Table 4 Normal values for the sensory nerve action potential amplitude (SNAP Amp) for the sural nerve are values higher than 8 µV for subjects with less than 40 years of age, higher than 5 µV for subjects with 40-60 years of age, and higher than 2 µV for subjects with more than 60 years of age. Normal values for the sural-radial Amp ratio (SRAR) are values higher than 0.45 for subjects with 18-39 years, higher than 0.32 for subjects with 40-59 years and higher than 0.19 for subjects with 60 or more years of age.

[3] = Vitamin B6 monitoring (plasma pyridoxal 5'-phosphate) within the clinical study; type: in vivo, human; parameters: Plasma vitamin B6 (pyridoxal 5'-phosphate), Change from baseline, Median / Plasma vitamin B6 (pyridoxal 5'-phosphate), Change from baseline, Mean: unit not given here; details: for Plasma vitamin B6 (pyridoxal 5'-phosphate), Observed value, Median / Plasma vitamin B6 (pyridoxal 5'-phosphate), Observed value, Mean: no unit in table
Description: Therefore, potential neurotoxicity by NCS assessment and by PLP levels during the conduct of the current study was monitored.
Plasmatic concentration of vitamin B6 was monitored at each visit. The normal range of plasma concentration of vitamin B6 in humans (measured as pyridoxal 5'-phosphate) is […], values below this range are considered 'low' and values above, 'high'. In the inclusion visit at time zero patients were classified as 'normal', 'low' or 'high' and the change of this classification was assessed at each visit.
The fact that most of the patients show no change in the classification as 'normal', 'low', or 'high' during the study is a sign of low neurotoxicity of the product. This is the case for patient showing no shift from baseline, for instance 'Normal to Normal' patients.

dogs [4] = details: continuous i.v. infusion, cited from earlier work
monkeys = details: continuous i.v. infusion of 1000 mg/kg/day, 28 days; cited from earlier work
dogs [5] = details: cited from earlier work
beagle dogs = details: continuous edaravone infusion; cited from earlier work
[6] = Visit 1 (Baseline, before treatment), N=163
[7] = Visit 2 (Week 4), N=159, blinded pool edaravone/placebo 2:1
[8] = Visit 3 (Week 12), n=109, blinded pool edaravone/placebo 2:1
[9] = Visit 4 (Week 24), n=59, blinded pool edaravone/placebo 2:1
[10] = Visit 5 (Week 36), n=12, blinded pool edaravone/placebo 2:1

patients showing clinical signs of neuropathy ([1]; 313 randomized patients, blinded pool edaravone/placebo 2:1, 100 mg oral once daily, treated 6 months to one year and 7 months): 2.2% | number of patients showing clinical signs of neuropathy ([1]; out of 313 randomized patients, blinded pool edaravone/placebo 2:1, treated 6 months to one year and 7 months): 7 | Plasma vitamin B6 (pyridoxal 5'-phosphate), Observed value, Median ([3]; Screening (before treatment), n=182): 41.50 | Plasma vitamin B6 (pyridoxal 5'-phosphate), Observed value, Mean ([3]; Screening (before treatment), n=182, normal range 12-128 ng/L): 74.90 | Plasma vitamin B6 (pyridoxal 5'-phosphate), Observed value, Mean [3, 6]: 76.6 | Plasma vitamin B6 (pyridoxal 5'-phosphate), Observed value, Median [3, 6]: 41.0 | Plasma vitamin B6 (pyridoxal 5'-phosphate), Change from baseline, Mean [3, 7]: 0.5 | Plasma vitamin B6 (pyridoxal 5'-phosphate), Change from baseline, Median [3, 7]: 2.0 | Plasma vitamin B6 (pyridoxal 5'-phosphate), Observed value, Mean [3, 7]: 77.10 | Plasma vitamin B6 (pyridoxal 5'-phosphate), Observed value, Median [3, 7]: 43.0 | Plasma vitamin B6 (pyridoxal 5'-phosphate), Change from baseline, Mean [3, 8]: -6.8 | Plasma vitamin B6 (pyridoxal 5'-phosphate), Change from baseline, Median [3, 8]: 2.0 | Plasma vitamin B6 (pyridoxal 5'-phosphate), Observed value, Mean [3, 8]: 69.80 | Plasma vitamin B6 (pyridoxal 5'-phosphate), Observed value, Median [3, 8]: 43.0 | Plasma vitamin B6 (pyridoxal 5'-phosphate), Change from baseline, Mean [3, 9]: -0.7 | Plasma vitamin B6 (pyridoxal 5'-phosphate), Change from baseline, Median [3, 9]: 4.0 | Plasma vitamin B6 (pyridoxal 5'-phosphate), Observed value, Mean [3, 9]: 75.9 | Plasma vitamin B6 (pyridoxal 5'-phosphate), Observed value, Median [3, 9]: 45.0 | Plasma vitamin B6 (pyridoxal 5'-phosphate), Change from baseline, Mean [3, 10]: 19.2 | Plasma vitamin B6 (pyridoxal 5'-phosphate), Change from baseline, Median [3, 10]: 33.5 | Plasma vitamin B6 (pyridoxal 5'-phosphate), Observed value, Mean [3, 10]: 95.8 | Plasma vitamin B6 (pyridoxal 5'-phosphate), Observed value, Median [3, 10]: 74.5
Compound: CC1=NN(c2ccccc2)C(=O)C1 [edaravone, 5-methyl-2-phenyl-4H-pyrazol-3-one]
percentage of neuropathy in patients compared with normal population ([1]; clinical trial with edaravone, normal population about 8 %): not higher than the percentage found in the normal population | Sural-Radial Amp Ratio (SRAR), Shift from Baseline: Low to Low ([2]; Visit 2 (Week 4), N=165): 9 (5.5) n (%) | Sural-Radial Amp Ratio (SRAR), Shift from Baseline: Low to Normal ([2]; Visit 2 (Week 4), N=165): 8 (4.8) n (%) | Sural-Radial Amp Ratio (SRAR), Shift from Baseline: Normal to Low ([2]; Visit 2 (Week 4), N=165): 6 (3.6) n (%) | Sural-Radial Amp Ratio (SRAR), Shift from Baseline: Normal to Normal ([2]; Visit 2 (Week 4), N=165): 142 (86.1) n (%) | Sural nerve - SNAP Amp, Shift from Baseline: Low to Low ([2]; Visit 2 (Week 4), N=167): 3 (1.8) n (%) | Sural nerve - SNAP Amp, Shift from Baseline: Low to Normal ([2]; Visit 2 (Week 4), N=167): 0 (0.0) n (%) | Sural nerve - SNAP Amp, Shift from Baseline: Normal to Low ([2]; Visit 2 (Week 4), N=167): 2 (1.2) n (%) | Sural nerve - SNAP Amp, Shift from Baseline: Normal to Normal ([2]; Visit 2 (Week 4), N=167): 162 (97.0) n (%) | Sural-Radial Amp Ratio (SRAR), Shift from Baseline: Low to Low ([2]; Visit 3 (Week 12), N=112): 5 (4.5) n (%) | Sural-Radial Amp Ratio (SRAR), Shift from Baseline: Low to Normal ([2]; Visit 3 (Week 12), N=112): 4 (3.6) n (%) | Sural-Radial Amp Ratio (SRAR), Shift from Baseline: Normal to Low ([2]; Visit 3 (Week 12), N=112): 10 (8.9) n (%) | Sural-Radial Amp Ratio (SRAR), Shift from Baseline: Normal to Normal ([2]; Visit 3 (Week 12), N=112): 93 (83.0) n (%) | Sural nerve - SNAP Amp, Shift from Baseline: Low to Low ([2]; Visit 3 (Week 12), N=115): 2 (1.7) n (%) | Sural nerve - SNAP Amp, Shift from Baseline: Low to Normal ([2]; Visit 3 (Week 12), N=115): 0 (0.0) n (%) | Sural nerve - SNAP Amp, Shift from Baseline: Normal to Low ([2]; Visit 3 (Week 12), N=115): 3 (2.6) n (%) | Sural nerve - SNAP Amp, Shift from Baseline: Normal to Normal ([2]; Visit 3 (Week 12), N=115): 110 (95.7) n (%) | Sural-Radial Amp Ratio (SRAR), Shift from Baseline: Low to Low ([2]; Visit 4 (Week 24), N=59): 4 (6.8) n (%) | Sural-Radial Amp Ratio (SRAR), Shift from Baseline: Low to Normal ([2]; Visit 4 (Week 24), N=59): 1 (1.7) n (%) | Sural-Radial Amp Ratio (SRAR), Shift from Baseline: Normal to Low ([2]; Visit 4 (Week 24), N=59): 4 (6.8) n (%) | Sural-Radial Amp Ratio (SRAR), Shift from Baseline: Normal to Normal ([2]; Visit 4 (Week 24), N=59): 50 (84.7) n (%) | Sural nerve - SNAP Amp, Shift from Baseline: Low to Low ([2]; Visit 4 (Week 24), N=60): 0 (0.0) n (%) | Sural nerve - SNAP Amp, Shift from Baseline: Low to Normal ([2]; Visit 4 (Week 24), N=60): 0 (0.0) n (%) | Sural nerve - SNAP Amp, Shift from Baseline: Normal to Low ([2]; Visit 4 (Week 24), N=60): 3 (5.0) n (%) | Sural nerve - SNAP Amp, Shift from Baseline: Normal to Normal ([2]; Visit 4 (Week 24), N=60): 57 (95.0) n (%) | main criteria for neuropathy: decreased sural nerve SNAP amplitudes or decreased sural/radial nerve amplitude ratio (SRAR) ([2]; at baseline and at different times during the study): not found in most of the patients | plasmatic concentration of vitamin B6 versus baseline ([3]; monitored at each visit): do not show a decrease; also recorded: not reduced from baseline | onset of dose-dependent impaired motor function (dogs [4]; 300 mg/kg/day): 13 days | onset of dose-dependent impaired motor function (dogs [4]; ≥60 mg/kg/day): 18 days of treatment | finding associated with the loss of motor function (dogs [4]): axonal degeneration of peripheral nerves fibres and in the CNS | histological correlate in the central and peripheral nervous system (monkeys): minimal to severe nerve fibre degenerations | motor deficits, time of appearance (monkeys): third and fourth week | levels of pyridoxal 5'-phosphate (PLP) (dogs [5]; continuous i.v. infusions of 1000 mg/kg/day): reduced | onset of the axonal nerve fibre degenerations (dogs [5]; continuously infused i.v. dose 120 mg/kg/day): 15 days | onset of the axonal nerve fibre degenerations (dogs [5]; continuously infused i.v. dose 300 mg/kg/day): 11 days | plasma levels of vitamin B6 (beagle dogs): decreasing plasma levels of vitamin B6
